ChEMBL document CHEMBL3045758, “Quantitative Structure-Activity Relationships of Fungicidal N-Phenylformamidoximes” (J Pestic Sci, 1992)

Tests used:
Botrytis cinerea [1] = assay: Fungicidal activity against benzimidazole-resistant Botryotinia fuckeliana after 48 hr by poisoned food technique; format: functional, organism-based; conditions: Botrytis cinerea, 48 h; read-out: pEC50 (converted)
Phaseolus vulgaris = assay: Phytotoxicity against Phaseolus vulgaris (kidney bean) assessed as necrosis of leaf at 100 ppm after 7 days in greenhouse conditions; format: organism-based; conditions: in vivo, 168 h
[2] = 1-octanol/water distribution coefficient, log P of the compound; format: physicochemical
Botrytis cinerea [3] = assay: Fungicidal activity against benzimidazole-resistant Botryotinia fuckeliana at 200 ppm after 48 hr by poisoned food technique; format: functional
Botrytis cinerea [4] = assay: Fungicidal activity against benzimidazole-resistant Botryotinia fuckeliana infected kidney bean leaf at 100 ppm after 7 days in greenhouse conditions by detached leaf test; format: functional
Botrytis cinerea [5] = assay: Fungicidal activity against benzimidazole-resistant Botryotinia fuckeliana at 25 ppm after 48 hr by poisoned food technique; format: functional
Botrytis cinerea [6] = assay: Fungicidal activity against benzimidazole-resistant Botryotinia fuckeliana at 6.2 ppm after 48 hr by poisoned food technique; format: functional

Structure (SMILES)	EC50 (Botrytis cinerea [1]) [nM]	Activity (Phaseolus vulgaris)	logP [2]	Activity (Botrytis cinerea [3]) [%]	Activity (Botrytis cinerea [4]) [%]	Activity (Botrytis cinerea [5]) [%]	Activity (Botrytis cinerea [6]) [%]
C#CCc1c(Cl)cc(N/C=N/OC(C)C)cc1Cl	33.1	Non-toxic	3.9	–	–	–	–
C#CCc1c(Cl)cc(N/C=N/OCC=C)cc1Cl	67.6	Non-toxic	3.7	–	–	–	–
C#CCO/N=C/Nc1cc(Cl)c(CC#C)c(Cl)c1	33.9	Non-toxic	3.3	–	–	–	–
C#CCc1c(Cl)cc(N/C=N/OCCCC)cc1Cl	316	Non-toxic	4.4	–	–	–	–
C#CCc1c(Cl)cc(N/C=N/OC(C)CC)cc1Cl (stereo unspecified)	158	Non-toxic	4.2	–	–	–	–
C#CCc1c(Cl)cc(N/C=N/OCC#N)cc1Cl	33.9	Non-toxic	3	–	–	–	–
C#CCc1c(Cl)cc(N/C=N/OCOC)cc1Cl	33.1	Non-toxic	3.2	–	–	–	–
C#CCc1c(Cl)cc(N/C=N/OCSC)cc1Cl	31.6	Non-toxic	3.6	–	–	–	–
C#CCc1c(Cl)cc(N/C=N/OCOCC)cc1Cl	63.1	Non-toxic	3.5	–	–	–	–
C#CCc1c(Cl)cc(N/C=N/OCC(=O)OCC)cc1Cl	1450	Non-toxic	3.6	–	–	–	–
C#CCc1c(Cl)cc(N/C=N/OCCCl)cc1Cl	30.9	Non-toxic	3.7	–	–	–	–
C#CCc1c(Cl)cc(N/C=N/OCCOCC)cc1Cl	60.3	Non-toxic	3.7	–	–	–	–
C#CCc1c(Cl)cc(N/C=N/OC/C=C\Cl)cc1Cl	60.3	Non-toxic	3.9	–	–	–	–
C#CCc1c(Cl)cc(N/C=N/OC/C=C/Cl)cc1Cl	302	Non-toxic	3.9	–	–	–	–
C#CCc1c(Cl)cc(N/C=N/OCc2ccccc2)cc1Cl	2880	Non-toxic	4.2	–	–	–	–
C#CCc1c(Cl)cc(N/C=N/Oc2ccccc2)cc1Cl	295	Non-toxic	4.4	–	–	–	–
C#CCc1c(Cl)cc(N/C=N/Oc2ccc(C)cc2)cc1Cl	851	Non-toxic	4.8	–	–	–	–
CCO/N=C/Nc1ccc(OCC)c(OCC)c1	–	Non-toxic	–	100	50	70	26
CCO/N=C/Nc1cc(Cl)c(OCC)c(Cl)c1OCC	–	Non-toxic	–	50	<25	<25	<25
CCO/N=C/Nc1cc(Cl)c(F)c(Cl)c1	794	<= 10%	4	–	–	–	–
CCO/N=C/Nc1cc(Cl)c(CC)c(Cl)c1	389	Non-toxic	4.8	–	–	–	–
CCCCc1c(Cl)cc(N/C=N/OCC)cc1Cl	1740	Non-toxic	5.6	–	–	–	–
CCO/N=C/Nc1cc(Cl)c(SCC)c(Cl)c1	170	Non-toxic	4.6	–	–	–	–
CCO/N=C/Nc1cc(Cl)c(SSCC)c(Cl)c1	617	Non-toxic	5	–	–	–	–
CCO/N=C/Nc1cc(Cl)c([S+]([O-])CC)c(Cl)c1 (stereo unspecified)	162000	Non-toxic	2.9	–	–	–	–

Structure (SMILES)	EC50 (Botrytis cinerea [1]) [nM]	Activity (Phaseolus vulgaris)	logP [2]	Activity (Botrytis cinerea [3]) [%]	Activity (Botrytis cinerea [4]) [%]	Activity (Botrytis cinerea [5]) [%]	Activity (Botrytis cinerea [6]) [%]
CCO/N=C/Nc1cc(Cl)c(S(=O)(=O)CC)c(Cl)c1	30900	<= 10%	2.8	–	–	–	–
CCO/N=C/Nc1cc(Cl)c(O)c(Cl)c1	794	Non-toxic	2.8	–	–	–	–
CCO/N=C/Nc1cc(Cl)c(OC)c(Cl)c1	191	Non-toxic	3.7	–	–	–	–
CCCOc1c(Cl)cc(N/C=N/OCC)cc1Cl	174	Non-toxic	4.6	–	–	–	–
CCO/N=C/Nc1cc(Cl)c(OC(C)C)c(Cl)c1	6920	<= 10%	4.4	–	–	–	–
C=CCOc1c(Cl)cc(N/C=N/OCC)cc1Cl	34.7	Non-toxic	4.3	–	–	–	–
C#CCOc1c(Cl)cc(NC=NOCC)cc1Cl	17.4	Non-toxic	3.6	–	–	–	–
CCO/N=C/Nc1cc(Cl)c(OCC(C)C)c(Cl)c1	16200	<= 10%	5	–	–	–	–
CC#CCOc1c(Cl)cc(N/C=N/OCC)cc1Cl	166	Non-toxic	4	–	–	–	–
CCO/N=C/Nc1cc(Cl)c(OCC#N)c(Cl)c1	174	Non-toxic	3.1	–	–	–	–
CCO/N=C/Nc1cc(Cl)c(OCOC)c(Cl)c1	174	Non-toxic	3.7	–	–	–	–
CCO/N=C/Nc1cc(Cl)c(OCCCl)c(Cl)c1	32.4	Non-toxic	4	–	–	–	–
C#CCc1c(Cl)cc(N/C=N/O)cc1Cl	77.6	Non-toxic	2.8	–	–	–	–
C#CCc1c(Cl)cc(N/C=N/OCCC)cc1Cl	33.1	Non-toxic	4	–	–	–	–
CCO/N=C/Nc1ccccc1OCC	–	Non-toxic	–	100	<25	100	<25
CCO/N=C/Nc1cccc(OCC)c1	–	Non-toxic	–	100	<25	26	<25
CCO/N=C/Nc1ccc(OCC)cc1	–	Non-toxic	–	50	<25	<25	<25
CCO/N=C/Nc1cccc(Cl)c1Cl	–	11%	–	100	<25	<25	<25
CCO/N=C/Nc1ccc(Cl)cc1Cl	–	<= 10%	–	100	<25	<25	<25
CCO/N=C/Nc1cc(Cl)ccc1Cl	–	Non-toxic	–	70	<25	<25	<25
CCO/N=C/Nc1c(Cl)cccc1Cl	–	> 31%	–	90	<25	<25	<25
CCO/N=C/Nc1ccc(Cl)c(Cl)c1	–	11%	–	70	<25	<25	<25
CCO/N=C/Nc1c(C)cccc1C	–	11%	–	<25	<25	<25	<25
CCO/N=C/Nc1cc(C)cc(C)c1	–	Non-toxic	–	90	<25	<25	<25
CCO/N=C/Nc1cc(OCC)ccc1OCC	–	Non-toxic	–	100	<25	100	70
